According to publication PMC10239507, “Development of allosteric and selective CDK2 inhibitors for contraception with negative cooperativity to cyclin binding” (Nature Communications, 2023):

Columns and labels:
Experiment in all cases: biochemical
[1] = target: T1, 371 kinases (kinase named in each endpoint) (Homo sapiens, UniProt O14733); conditions: MKK7
T1 construct: purchased Reaction Biology

[2] = target: T2, 371 kinases (kinase named in each endpoint) (Homo sapiens, UniProt O43353); conditions: RIPK2
T2 construct: purchased Reaction Biology

[3] = target: T3, 371 kinases (kinase named in each endpoint) (Homo sapiens, UniProt O60674); conditions: JAK2
T3 construct: purchased Reaction Biology

[4] = target: T4, 371 kinases (kinase named in each endpoint) (Homo sapiens, UniProt O75460); conditions: ERN1/IRE1
T4 construct: purchased Reaction Biology

[5] = target: T5, 371 kinases (kinase named in each endpoint) (Homo sapiens, UniProt O95835); conditions: LATS1
T5 construct: purchased Reaction Biology

[6] = target: T6, 371 kinases (kinase named in each endpoint) (Homo sapiens, UniProt P11802)
T6 construct: purchased Reaction Biology

[7] = target: T7, 371 kinases (kinase named in each endpoint) (Homo sapiens, UniProt P12931); conditions: C-SRC
T7 construct: purchased Reaction Biology

[8] = target: T8, 371 kinases (kinase named in each endpoint) (Homo sapiens, UniProt P16234); conditions: PDGFRA
T8 construct: purchased Reaction Biology

[9] = target: T9, 371 kinases (kinase named in each endpoint) (Homo sapiens, UniProt P36507); conditions: MEK2
T9 construct: purchased Reaction Biology

[10] = target: T10, 371 kinases (kinase named in each endpoint) (Homo sapiens, UniProt P41743); conditions: PKCIOTA
T10 construct: purchased Reaction Biology

[11] = target: T11, 371 kinases (kinase named in each endpoint) (Homo sapiens, UniProt P42680); conditions: TEC
T11 construct: purchased Reaction Biology

[12] = target: T12, 371 kinases (kinase named in each endpoint) (Homo sapiens, UniProt P43250); conditions: GRK6
T12 construct: purchased Reaction Biology

[13] = target: T13, 371 kinases (kinase named in each endpoint) (Homo sapiens, UniProt P49760); conditions: CLK2
T13 construct: purchased Reaction Biology

[14] = target: T14, 371 kinases (kinase named in each endpoint) (Homo sapiens, UniProt P52564); conditions: MKK6
T14 construct: purchased Reaction Biology

[15] = target: T15, 371 kinases (kinase named in each endpoint) (Homo sapiens, UniProt P53778); conditions: P38G
T15 construct: purchased Reaction Biology

[16] = target: T16, 371 kinases (kinase named in each endpoint) (Homo sapiens, UniProt P54760); conditions: EPHB4
T16 construct: purchased Reaction Biology

[17] = target: T17, 371 kinases (kinase named in each endpoint) (Homo sapiens, UniProt Q08881); conditions: ITK
T17 construct: purchased Reaction Biology

[18] = target: T18, 371 kinases (kinase named in each endpoint) (Homo sapiens, UniProt Q09013); conditions: DMPK
T18 construct: purchased Reaction Biology

[19] = target: T19, 371 kinases (kinase named in each endpoint) (Homo sapiens, UniProt Q13188); conditions: MST2/STK3
T19 construct: purchased Reaction Biology

[20] = target: T20, 371 kinases (kinase named in each endpoint) (Homo sapiens, UniProt Q13627); conditions: DYRK1/DYRK1A
T20 construct: purchased Reaction Biology

[21] = target: T21, 371 kinases (kinase named in each endpoint) (Homo sapiens, UniProt Q5S007); conditions: LRRK2
T21 construct: purchased Reaction Biology

[22] = target: T22, 371 kinases (kinase named in each endpoint) (Homo sapiens, UniProt Q6DT37); conditions: DMPK2
T22 construct: purchased Reaction Biology

[23] = target: T23, 371 kinases (kinase named in each endpoint) (Homo sapiens, UniProt Q6P5Z2); conditions: PKN3/PRK3
T23 construct: purchased Reaction Biology

[24] = target: T24, 371 kinases (kinase named in each endpoint) (Homo sapiens, UniProt Q86Y07); conditions: VRK2
T24 construct: purchased Reaction Biology

[25] = target: T25, 371 kinases (kinase named in each endpoint) (Homo sapiens, UniProt Q8N4C8); conditions: MINK/MINK1
T25 construct: purchased Reaction Biology

[26] = target: T26, 371 kinases (kinase named in each endpoint) (Homo sapiens, UniProt Q8N752); conditions: CK1A1L
T26 construct: purchased Reaction Biology

[27] = target: T27, 371 kinases (kinase named in each endpoint) (Homo sapiens, UniProt Q96PY6); conditions: NEK1
T27 construct: purchased Reaction Biology

[28] = target: T28, 371 kinases (kinase named in each endpoint) (Homo sapiens, UniProt Q9BXA6); conditions: SSTK/TSSK6
T28 construct: purchased Reaction Biology

[29] = target: T29, 371 kinases (kinase named in each endpoint) (Homo sapiens, UniProt Q9H422); conditions: HIPK3
T29 construct: purchased Reaction Biology

[30] = target: T30, 371 kinases (kinase named in each endpoint) (Homo sapiens, UniProt Q9HBY8); conditions: SGK2
T30 construct: purchased Reaction Biology

[31] = target: T31, 371 kinases (kinase named in each endpoint) (Homo sapiens, UniProt Q9NRH2); conditions: SNRK
T31 construct: purchased Reaction Biology

[32] = target: T32, 371 kinases (kinase named in each endpoint) (Homo sapiens, UniProt Q9NYY3); conditions: PLK2
T32 construct: purchased Reaction Biology

[33] = target: T33, 371 kinases (kinase named in each endpoint) (Homo sapiens, UniProt Q9UL54); conditions: TAOK2/TAO1
T33 construct: purchased Reaction Biology

[34] = target: T34, 371 kinases (kinase named in each endpoint) (Homo sapiens, UniProt Q9UQB9); conditions: AURORA C
T34 construct: purchased Reaction Biology

[35] = target: T35, 371 kinases (kinase named in each endpoint) (Homo sapiens, UniProt Q9Y463); conditions: DYRK1B
T35 construct: purchased Reaction Biology

[36] = target: T36, 371 kinases (kinase named in each endpoint) (Homo sapiens, UniProt Q9Y6M4); conditions: CK1G3
T36 construct: purchased Reaction Biology
T36 sequence (Q9Y6M4 whole entry): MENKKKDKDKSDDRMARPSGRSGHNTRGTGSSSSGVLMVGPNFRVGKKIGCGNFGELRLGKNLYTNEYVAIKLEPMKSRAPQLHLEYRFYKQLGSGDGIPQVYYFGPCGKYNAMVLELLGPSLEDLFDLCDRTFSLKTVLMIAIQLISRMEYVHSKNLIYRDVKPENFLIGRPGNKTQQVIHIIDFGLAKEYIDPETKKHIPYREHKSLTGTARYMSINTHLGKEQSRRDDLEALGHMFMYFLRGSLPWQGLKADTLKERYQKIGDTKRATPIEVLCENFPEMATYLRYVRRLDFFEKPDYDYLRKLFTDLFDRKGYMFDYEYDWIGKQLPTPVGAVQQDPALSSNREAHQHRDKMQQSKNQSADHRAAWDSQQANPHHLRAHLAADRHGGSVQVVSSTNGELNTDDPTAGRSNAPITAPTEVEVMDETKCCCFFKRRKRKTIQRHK

T6 sequence (P11802 whole entry): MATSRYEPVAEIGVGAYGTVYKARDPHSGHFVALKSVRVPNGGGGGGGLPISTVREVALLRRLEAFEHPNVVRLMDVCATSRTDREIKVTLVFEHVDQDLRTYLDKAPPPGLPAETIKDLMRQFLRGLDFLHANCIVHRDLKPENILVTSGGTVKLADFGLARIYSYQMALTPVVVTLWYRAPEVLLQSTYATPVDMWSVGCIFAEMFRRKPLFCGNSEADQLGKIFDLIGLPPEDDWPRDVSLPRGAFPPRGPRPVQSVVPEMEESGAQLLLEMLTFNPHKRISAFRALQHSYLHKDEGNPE
T15 sequence (P53778 whole entry): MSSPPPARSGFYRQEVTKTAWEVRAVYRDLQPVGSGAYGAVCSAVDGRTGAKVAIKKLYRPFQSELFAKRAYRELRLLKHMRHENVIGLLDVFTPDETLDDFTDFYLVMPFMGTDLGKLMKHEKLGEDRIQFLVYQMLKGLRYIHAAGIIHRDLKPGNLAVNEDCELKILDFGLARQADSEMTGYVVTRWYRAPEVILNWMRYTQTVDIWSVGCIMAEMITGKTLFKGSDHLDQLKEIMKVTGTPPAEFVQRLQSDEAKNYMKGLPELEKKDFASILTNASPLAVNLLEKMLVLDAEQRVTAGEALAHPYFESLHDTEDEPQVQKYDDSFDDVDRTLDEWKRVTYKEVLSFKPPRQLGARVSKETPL
T3 sequence (O60674 whole entry): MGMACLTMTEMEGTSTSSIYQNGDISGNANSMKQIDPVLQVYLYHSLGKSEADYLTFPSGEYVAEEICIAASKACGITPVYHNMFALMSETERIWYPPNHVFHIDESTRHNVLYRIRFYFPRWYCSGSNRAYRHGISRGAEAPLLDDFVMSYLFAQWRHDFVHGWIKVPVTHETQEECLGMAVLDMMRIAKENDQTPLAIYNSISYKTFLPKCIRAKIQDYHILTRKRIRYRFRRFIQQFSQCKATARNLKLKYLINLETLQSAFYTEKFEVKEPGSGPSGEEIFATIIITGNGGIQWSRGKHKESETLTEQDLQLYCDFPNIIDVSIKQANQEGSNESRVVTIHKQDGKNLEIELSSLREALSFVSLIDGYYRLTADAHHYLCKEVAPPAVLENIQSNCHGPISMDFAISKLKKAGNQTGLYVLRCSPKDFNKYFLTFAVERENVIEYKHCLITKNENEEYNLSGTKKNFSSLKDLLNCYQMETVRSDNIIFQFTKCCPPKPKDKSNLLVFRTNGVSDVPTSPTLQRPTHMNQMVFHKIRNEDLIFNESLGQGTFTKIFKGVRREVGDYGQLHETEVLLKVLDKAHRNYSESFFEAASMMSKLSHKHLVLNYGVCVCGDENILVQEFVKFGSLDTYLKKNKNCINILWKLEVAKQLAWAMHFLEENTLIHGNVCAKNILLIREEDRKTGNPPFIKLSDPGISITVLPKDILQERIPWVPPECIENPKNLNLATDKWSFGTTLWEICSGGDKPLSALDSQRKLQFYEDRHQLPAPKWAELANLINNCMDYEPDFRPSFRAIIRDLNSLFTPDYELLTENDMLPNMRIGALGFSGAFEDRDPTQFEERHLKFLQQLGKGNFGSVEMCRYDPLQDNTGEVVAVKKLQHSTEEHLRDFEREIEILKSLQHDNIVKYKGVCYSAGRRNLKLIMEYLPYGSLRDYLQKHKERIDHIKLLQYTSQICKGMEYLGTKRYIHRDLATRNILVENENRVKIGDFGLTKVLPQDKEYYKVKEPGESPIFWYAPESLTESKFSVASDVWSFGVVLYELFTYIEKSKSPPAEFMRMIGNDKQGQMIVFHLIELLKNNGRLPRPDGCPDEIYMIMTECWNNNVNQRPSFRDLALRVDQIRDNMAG
T30 sequence (Q9HBY8 whole entry): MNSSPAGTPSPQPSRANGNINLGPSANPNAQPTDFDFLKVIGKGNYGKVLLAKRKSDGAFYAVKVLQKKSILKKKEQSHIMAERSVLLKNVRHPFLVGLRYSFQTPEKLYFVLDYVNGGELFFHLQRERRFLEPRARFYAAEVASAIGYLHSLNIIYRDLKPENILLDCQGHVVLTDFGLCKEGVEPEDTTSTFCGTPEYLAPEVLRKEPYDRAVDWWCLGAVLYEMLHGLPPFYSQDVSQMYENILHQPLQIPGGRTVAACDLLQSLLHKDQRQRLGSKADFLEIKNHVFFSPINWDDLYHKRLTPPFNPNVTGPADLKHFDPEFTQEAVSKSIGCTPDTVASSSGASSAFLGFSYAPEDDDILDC
T18 sequence (Q09013 whole entry): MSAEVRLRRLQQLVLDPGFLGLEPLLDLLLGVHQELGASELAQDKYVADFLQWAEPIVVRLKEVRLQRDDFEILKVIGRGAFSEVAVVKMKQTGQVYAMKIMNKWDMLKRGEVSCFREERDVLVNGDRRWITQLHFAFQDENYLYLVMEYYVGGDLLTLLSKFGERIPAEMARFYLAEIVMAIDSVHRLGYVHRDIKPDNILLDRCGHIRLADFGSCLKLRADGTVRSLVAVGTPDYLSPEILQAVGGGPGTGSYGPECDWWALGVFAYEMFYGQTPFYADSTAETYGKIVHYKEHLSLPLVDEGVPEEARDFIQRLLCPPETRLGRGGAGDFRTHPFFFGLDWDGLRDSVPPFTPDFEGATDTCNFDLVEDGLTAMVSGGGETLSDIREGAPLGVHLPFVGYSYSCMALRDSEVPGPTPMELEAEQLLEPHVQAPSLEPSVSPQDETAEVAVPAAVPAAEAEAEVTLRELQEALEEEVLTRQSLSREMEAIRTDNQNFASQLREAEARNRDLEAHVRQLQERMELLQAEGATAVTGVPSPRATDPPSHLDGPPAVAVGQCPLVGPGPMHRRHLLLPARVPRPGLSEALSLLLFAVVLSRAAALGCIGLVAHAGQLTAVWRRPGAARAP
T16 sequence (P54760 16-987): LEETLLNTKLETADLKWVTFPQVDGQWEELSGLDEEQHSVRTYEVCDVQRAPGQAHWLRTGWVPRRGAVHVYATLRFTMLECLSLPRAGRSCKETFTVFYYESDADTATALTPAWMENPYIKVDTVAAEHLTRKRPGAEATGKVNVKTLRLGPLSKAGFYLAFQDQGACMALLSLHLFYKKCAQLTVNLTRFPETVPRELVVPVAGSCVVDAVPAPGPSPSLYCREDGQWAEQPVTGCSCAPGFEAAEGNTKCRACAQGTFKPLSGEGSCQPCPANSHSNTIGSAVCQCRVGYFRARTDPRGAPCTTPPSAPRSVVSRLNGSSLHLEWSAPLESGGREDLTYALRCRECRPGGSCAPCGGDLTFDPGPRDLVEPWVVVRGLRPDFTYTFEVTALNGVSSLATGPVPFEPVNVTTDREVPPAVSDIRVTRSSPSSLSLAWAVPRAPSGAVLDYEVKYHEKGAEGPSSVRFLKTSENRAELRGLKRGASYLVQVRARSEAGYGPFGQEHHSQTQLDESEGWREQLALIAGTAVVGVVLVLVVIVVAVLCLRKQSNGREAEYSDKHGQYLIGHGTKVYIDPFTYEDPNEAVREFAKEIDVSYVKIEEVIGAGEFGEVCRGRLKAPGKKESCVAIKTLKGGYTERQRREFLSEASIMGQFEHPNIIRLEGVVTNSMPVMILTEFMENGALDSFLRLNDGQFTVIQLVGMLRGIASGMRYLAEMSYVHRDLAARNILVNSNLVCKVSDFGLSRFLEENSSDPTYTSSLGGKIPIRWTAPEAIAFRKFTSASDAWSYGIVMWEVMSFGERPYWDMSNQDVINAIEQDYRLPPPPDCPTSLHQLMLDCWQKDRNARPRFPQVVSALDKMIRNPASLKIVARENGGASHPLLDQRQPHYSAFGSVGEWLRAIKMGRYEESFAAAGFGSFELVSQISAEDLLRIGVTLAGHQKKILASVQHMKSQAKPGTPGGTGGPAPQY
T28 sequence (Q9BXA6 whole entry): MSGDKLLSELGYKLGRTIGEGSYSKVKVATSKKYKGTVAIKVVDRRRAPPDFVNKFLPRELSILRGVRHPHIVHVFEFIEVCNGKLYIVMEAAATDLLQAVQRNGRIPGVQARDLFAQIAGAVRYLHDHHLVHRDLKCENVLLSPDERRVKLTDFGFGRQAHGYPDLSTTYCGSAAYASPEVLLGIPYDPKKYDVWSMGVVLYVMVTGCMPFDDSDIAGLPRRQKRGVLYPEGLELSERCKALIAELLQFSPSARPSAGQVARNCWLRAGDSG
T7 sequence (P12931 whole entry): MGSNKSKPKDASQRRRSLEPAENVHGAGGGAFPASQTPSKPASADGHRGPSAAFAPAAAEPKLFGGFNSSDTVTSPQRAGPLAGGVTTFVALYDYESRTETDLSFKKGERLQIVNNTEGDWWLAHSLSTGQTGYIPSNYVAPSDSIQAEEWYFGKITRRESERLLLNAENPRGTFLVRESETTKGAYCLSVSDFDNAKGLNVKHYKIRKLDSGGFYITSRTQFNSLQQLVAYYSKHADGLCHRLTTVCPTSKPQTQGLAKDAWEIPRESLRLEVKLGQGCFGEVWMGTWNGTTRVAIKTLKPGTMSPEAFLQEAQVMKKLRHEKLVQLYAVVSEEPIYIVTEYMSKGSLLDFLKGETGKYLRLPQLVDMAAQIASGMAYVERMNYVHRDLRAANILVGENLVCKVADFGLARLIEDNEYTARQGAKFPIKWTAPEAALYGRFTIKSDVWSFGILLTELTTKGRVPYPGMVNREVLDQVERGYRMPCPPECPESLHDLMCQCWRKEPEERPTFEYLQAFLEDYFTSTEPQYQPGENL

Structure (SMILES): O=C(O)c1cc(C(F)(F)F)ccc1NCCc1c[nH]c2cc(Br)ccc12 [Compound 5, 2-((2-(6-Bromo-1H-indol-3-yl)ethyl)amino)−5-(trifluoromethyl)benzoic Acid]
- activity at 10 µM [1]: 90.6 ± 0.3%
- activity at 10 µM [2]: 109 ± 2.9%
- activity at 10 µM [3]: 78.8 ± 1.9%
- activity at 10 µM [4]: 101 ± 0.6%
- activity at 10 µM [5]: 93 ± 3.5%
- activity at 10 µM ([6]; CDK4/CYCLIN D1): 80.1 ± 2.6%
- activity at 10 µM ([6]; CDK4/CYCLIN D2): 29.1 ± 0.1%
- activity at 10 µM ([6]; CDK4/CYCLIN D3): 82.9 ± 0.6%
- activity at 10 µM [7]: 95.1 ± 0.2%
- activity at 10 µM [8]: 86.9 ± 0.2%
- activity at 10 µM [9]: 110.4 ± 0.1%
- activity at 10 µM [10]: 96.8 ± 0.8%
- activity at 10 µM [11]: 101 ± 1.6%
- activity at 10 µM [12]: 112 ± 2.8%
- activity at 10 µM [13]: 104.3 ± 0.7%
- activity at 10 µM [14]: 101 ± 0.2%
- activity at 10 µM [15]: 107 ± 1.5%
- activity at 10 µM [16]: 91.7 ± 0.5%
- activity at 10 µM [17]: 127 ± 0.1%
- activity at 10 µM [18]: 108.2 ± 0.2%
- activity at 10 µM [19]: 134 ± 0.4%
- activity at 10 µM [20]: 80 ± 5.9%
- activity at 10 µM [21]: 99.5 ± 0.1%
- activity at 10 µM [22]: 96.2 ± 1.7%
- activity at 10 µM [23]: 98.3 ± 1.2%
- activity at 10 µM [24]: 94.6 ± 1%
- activity at 10 µM [25]: 86.9 ± 0.4%
- activity at 10 µM [26]: 90.8 ± 1.1%
- activity at 10 µM [27]: 91.8 ± 2.3%
- activity at 10 µM [28]: 102 ± 3%
- activity at 10 µM [29]: 86.3 ± 2.3%
- activity at 10 µM [30]: 63.9 ± 2%
- activity at 10 µM [31]: 80.4 ± 2.1%
- activity at 10 µM [32]: 67.4 ± 0.7%
- activity at 10 µM [33]: 100.9 ± 0.2%
- activity at 10 µM [34]: 98 ± 0.2%
- activity at 10 µM [35]: 64.8 ± 1.1%
- activity at 10 µM [36]: 96.3 ± 0.6%
